Laboratory results as given in BindingDB's records for PubMed 30125723 (n/a, 2018).

Molecular target: alpha-glucosidase (Saccharomyces cerevisiae)
Assay: Inhibition of Saccharomyces cerevisiae alpha-glucosidase activity using pNPG as substrate

IC50: 63 nM
Structure (SMILES): O=C(CO)CCC(=O)c1nc(C(=O)O)cc2c1[nH]c1ccccc12
